Measured values taken from patent US7538102B2, “Compounds for the treatment of Hepatitis C” (Bristol-Myers Squibb Company, priority 2007, dated 2009).

Key:
HCV NS5B = target: T1, HCV NS5B (Hepatitis C virus genotype 1b, UniProt Q9WMX2); assay: HCV NS5B RdRp enzyme assay (standard or modified); format: biochemical; settings: HCV NS5B RdRp genotype 1b; standard or modified enzyme assay not specified; read-out: IC50
T1 construct: The protein was expressed with an 18 amino acid C-terminal truncation to enhance the solubility; made in house; host or cells: E. coli BL21(DE3)
T1 sequence (Q9WMX2 2420-2992): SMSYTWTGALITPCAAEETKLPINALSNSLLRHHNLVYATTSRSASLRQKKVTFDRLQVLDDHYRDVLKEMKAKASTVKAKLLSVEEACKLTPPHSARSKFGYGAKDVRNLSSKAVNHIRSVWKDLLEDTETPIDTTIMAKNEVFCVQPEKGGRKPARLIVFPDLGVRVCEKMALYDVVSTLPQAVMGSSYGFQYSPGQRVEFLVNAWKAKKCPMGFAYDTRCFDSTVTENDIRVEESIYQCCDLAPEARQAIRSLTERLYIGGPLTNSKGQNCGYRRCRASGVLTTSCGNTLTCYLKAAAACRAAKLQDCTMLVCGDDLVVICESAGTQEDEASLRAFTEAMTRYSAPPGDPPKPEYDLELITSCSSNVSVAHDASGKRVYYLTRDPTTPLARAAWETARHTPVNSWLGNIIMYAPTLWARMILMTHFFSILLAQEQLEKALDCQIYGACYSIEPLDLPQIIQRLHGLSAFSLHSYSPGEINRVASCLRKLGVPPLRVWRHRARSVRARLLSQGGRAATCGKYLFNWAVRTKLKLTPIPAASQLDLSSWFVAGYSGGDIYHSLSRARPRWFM
Description: HCV NS5B RdRp cloning, expression, and purification. The cDNA encoding the NS5B protein of HCV, genotype 1b, was cloned into the pET21a expression vector. The protein was expressed with an 18 amino acid C-terminal truncation to enhance the solubility. The E. coli competent cell line BL21(DE3) was used for expression of the protein. Cultures were grown at 37° C. for ˜4 hours until the cultures reached an optical density of 2.0 at 600 nm. The cultures were cooled to 20° C. and induced with 1 mM IPTG. Fresh ampicillin was added to a final concentration of 50 μg/ml and the cells were grown overnight at 20° C.
Cell pellets (3 L) were lysed for purification to yield 15-24 mgs of purified NS5B. The lysis buffer consisted of 20 mM Tris-HCl, pH 7.4, 500 mM NaCl, 0.5% triton X-100, 1 mM DTT, 1mM EDTA, 20% glycerol, 0.5 mg/ml lysozyme, 10 mM MgCl2, 15 ug/ml deoxyribonuclease I, and Complete TM protease inhibitor tablets (Roche). After addition of the lysis buffer, frozen cell pellets were resuspended using a tissue homogenizer. To reduce the viscosity of the sample, aliquots of the lysate were sonicated on ice using a microtip attached to a Branson sonicator. The sonicated lysate was centrifuged at 100,000×g for 1 hr at 4° C. and filtered through a 0.2 μm filter unit (Corning).
The protein was purified using two sequential chromatography steps: Heparin sepharose CL-6B and polyU sepharose 4B (Pharmacia). The chromatography buffers were identical to the lysis buffer but contained no lysozyme, deoxyribonuclease I, MgCl2 or protease inhibitor and the NaCl concentration of the buffer was adjusted according to the requirements for charging the protein onto the column. Each column was eluted with a NaCl gradient which varied in length from 5-50 column volumes depending on the column type. After the final chromatography step, the resulting purity of the enzyme is >90% based on SDS-PAGE analysis. The enzyme was aliquoted and stored at −80° C.
Standard HCV NS5B RdRp enzyme assay. HCV RdRp genotype 1b assays were run in a final volume of 60 μl in 96 well plates (Corning 3600). The assay buffer is composed of 20 mM Hepes, pH 7.5, 2.5 mM KCl, 2.5 mM MgCl2, 1 mM DTT, 1.6 U RNAse inhibitor (Promega N2515), 0.01 mg/ml BSA (Sigma B6917), and 2% glycerol. All compounds were serially diluted (3-fold) in DMSO and diluted further in water such that the final concentration of DMSO in the assay was 2%. HCV RdRp genotype 1b enzyme was used at a final concentration of 28 nM. A polyA template was used at 6 nM, and a biotinylated oligo-dT12 primer was used at 180 nM final concentration. Template was obtained commercially (Amersham 27-4110). Biotinylated primer was prepared by Sigma Genosys. 3H-UTP was used at 0.6 μCi (0.29 μM total UTP). Reactions were initiated by the addition of enzyme, incubated at 30° C. for 60 min, and stopped by adding 25 μl of 50 mM EDTA containing SPA beads (4 μg/pl, Amersham RPNQ 0007). Plates were read on a Packard Top Count NXT after >1 hr incubation at room temperature.
Modified HCV NS5B RdRp enzyme assay. A modified enzyme assay was performed essentially as described for the standard enzyme assay except for the following: The biotinylated oligo dT12 primer was precaptured on streptavidin-coated SPA beads by mixing primer and beads in assay buffer and incubating at room temperature for one hour. Unbound primer was removed after centrifugation. The primer-bound beads were resuspended in 20 mM Hepes buffer, pH 7.5 and used in the assay at final concentrations of 20 nM primer and 0.67 μg/μl beads. Order of addition in the assay: enzyme (1.75 nM) was added to diluted compound followed by the addition of a mixture of template (0.36 nM), 3H-UTP (0.6 μCi, 0.29 μM), and primer-bound beads, to initiate the reaction; concentrations given are final. Reactions were allowed to proceed for 4 hours at 30° C.
IC50 values for compounds were determined using seven different [I]. […]

HCV replicon = HCV replicon FRET / luciferase assay; format: cell-based; settings: Hepatitis C virus; HCV replicon cells; 50% reduction in FRET or luciferase activity; read-out: EC50
Description: FRET Assay Preparation. The HCV FRET screening assay was performed in 96-well cell culture plates. The FRET peptide (Anaspec, Inc.) (Taliani et al., Anal. Biochem. 1996, 240, 60-67) contains a fluorescence donor, EDANS, near one end of the peptide and an acceptor, DABCYL, near the other end. The fluorescence of the peptide is quenched by […] resonance energy transfer (RET) between the donor and the acceptor, but as the NS3 protease cleaves the peptide the products are released from RET quenching and the fluorescence of the donor becomes apparent. The assay reagent was made as follows: 5× cell Luciferase cell culture lysis reagent from Promega (#E153A) diluted to 1× with dH2O, NaCl added to 150 mM final, the FRET peptide diluted to 20 μM final from a 2 mM stock.
To prepare plates, HCV replicon cells, with or without a Renilla luciferase reporter gene, were trypsinized and plated in a 96-well plate with titrated test compounds added in columns 3 through 12; columns 1 and 2 contained a control compound (HCV control inhibitor), and the bottom row contained cells with DMSO only. The plates were then placed in a CO2 incubator at 37° C.
Assays. Subsequent to addition of the test compounds described above (FRET Assay Preparation), at various times the plate was removed and Alamar blue solution (Trek Diagnostics, #00-100) was added to measure cellular toxicity. After reading in a Cytoflour 4000 instrument (PE Biosystems), plates were rinsed with PBS and then used for FRET assay by the addition of 30 ul of the FRET peptide assay reagent described above (FRET Assay Preparation) per well. The plate was then placed into the Cytoflour 4000 instrument which had been set to 340 excite/490 emission, automatic mode for up to 20 cycles and the plate read in a kinetic mode. Typically, the signal to noise using an endpoint analysis after the reads was at least three-fold. Alternatively, after Alamar blue reading, plates were rinsed with PBS, then used for luciferase assay using the Promega Dual-Glo Luciferase Assay System or the Promega EnduRen Live Cell Substrate assay.
Compound analysis was performed by quantification of the relative HCV replicon inhibition and the relative cytotoxicity values. To calculate cytoxicity values, the average Alamar Blue fluorescence signals from the control wells were set as 100% non-toxic. The individual signals in each of the compound test wells were then divided by the average control signal and multiplied by 100% to determine […]. To calculate the HCV replicon inhibition values, an average background value was obtained from the two wells containing the highest amount of HCV control inhibitor at the end of the assay period. These numbers were similar to those obtained from naive Huh-7 cells. The background numbers were then subtracted from the average signal obtained from the control wells and this number was used as 100% activity. The individual signals in each of the compound test wells were then divided by the averaged control values after background subtraction and multiplied by 100% to determine percent activity. EC50 values were calculated as the concentration which caused a 50% reduction in FRET or luciferase activity. The two numbers generated for the compound plate, percent cytoxicity and percent activity, were used to determine compounds of interest for further analysis.

SMILES	IC50 (HCV NS5B)	EC50 (HCV replicon)
COc1ccc2c(c1)C1CC1(C(=O)N(C)CC(=O)N1CCOCC1)Cn1c-2c(C2CCCCC2)c2ccc(C(=O)NS(=O)(=O)N(C)C)cc21 (centres unmarked)	3 to 1000 nM	3 to 1000 nM
COc1ccc2c(c1)C1CC1(C(=O)N1CCN(c3cnccn3)CC1)Cn1c-2c(C2CCCCC2)c2ccc(C(=O)NS(=O)(=O)C3CC3)cc21 (centres unmarked)	3 to 1000 nM	3 to 1000 nM
COc1ccc2c(c1)C1CC1(C(=O)O[C@@H]1C[C@H](C)CC[C@H]1C(C)C)Cn1c-2c(C2CCCCC2)c2ccc(C(=O)NS(=O)(=O)N(C)C)cc21 (some centres unmarked)	3 to 1000 nM	> 1000 nM
COc1ccc2c(c1)C1CC1(C(=O)N1CCNC(=O)CC1)Cn1c-2c(C2CCCCC2)c2ccc(C(=O)NS(=O)(=O)N(C)C)cc21 (centres unmarked)	3 to 1000 nM	3 to 1000 nM
COc1ccc2c(c1)C1CC1(C(=O)N1CCCN(Cc3ccccc3)CC1)Cn1c-2c(C2CCCCC2)c2ccc(C(=O)NS(=O)(=O)N(C)C)cc21 (centres unmarked)	3 to 1000 nM	3 to 1000 nM
COc1ccc2c(c1)C1CC1(C(=O)N1CCCN(C(C)=O)CC1)Cn1c-2c(C2CCCCC2)c2ccc(C(=O)NS(=O)(=O)N(C)C)cc21 (centres unmarked)	3 to 1000 nM	3 to 1000 nM
COc1ccc2c(c1)C1CC1(C(=O)N1CCNC(c3ccc(F)cc3)C1)Cn1c-2c(C2CCCCC2)c2ccc(C(=O)NS(=O)(=O)N(C)C)cc21 (centres unmarked)	3 to 1000 nM	3 to 1000 nM
COc1ccc(C2CN(C(=O)C34CC3c3cc(OC)ccc3-c3c(C5CCCCC5)c5ccc(C(=O)NS(=O)(=O)N(C)C)cc5n3C4)CCN2)cc1 (centres unmarked)	3 to 1000 nM	3 to 1000 nM
COc1ccc2c(c1)C1CC1(C(=O)N1CCNC(c3ccc(Cl)cc3)C1)Cn1c-2c(C2CCCCC2)c2ccc(C(=O)NS(=O)(=O)N(C)C)cc21 (centres unmarked)	3 to 1000 nM	3 to 1000 nM
COc1ccc2c(c1)C1CC1(C(=O)N1CCCN(Cc3cccnc3)CC1)Cn1c-2c(C2CCCCC2)c2ccc(C(=O)NS(=O)(=O)N(C)C)cc21 (centres unmarked)	3 to 1000 nM	3 to 1000 nM
COc1ccc2c(c1)C1CC1(C(=O)N1CCCN(Cc3cccnc3)CC1)Cn1c-2c(C2CCCCC2)c2ccc(C(=O)NS(=O)(=O)C3CC3)cc21 (centres unmarked)	3 to 1000 nM	3 to 1000 nM
COc1ccc2c(c1)C1CC1(C(=O)N1CCC[C@H]1CN1CCCC1)Cn1c-2c(C2CCCCC2)c2ccc(C(=O)NS(=O)(=O)C3CC3)cc21 (some centres unmarked)	3 to 1000 nM	3 to 1000 nM
COc1ccc2c(c1)C1CC1(C(=O)N1CCCN(C(=O)OC(C)(C)C)CC1)Cn1c-2c(C2CCCCC2)c2ccc(C(=O)NS(=O)(=O)C(C)C)cc21 (centres unmarked)	3 to 1000 nM	3 to 1000 nM
COc1ccc2c(c1)C1CC1(C(=O)N1CCCN(C(=O)OC(C)(C)C)CC1)Cn1c-2c(C2CCCCC2)c2ccc(C(=O)NS(C)(=O)=O)cc21 (centres unmarked)	3 to 1000 nM	3 to 1000 nM
COc1ccc2c(c1)C1CC1(C(=O)N1CCN(C)CC1c1ccccc1)Cn1c-2c(C2CCCCC2)c2ccc(C(=O)NS(C)(=O)=O)cc21 (centres unmarked)	3 to 1000 nM	3 to 1000 nM
COc1ccc2c(c1)C1CC1(C(=O)N1CCCN(Cc3cccnc3)CC1)Cn1c-2c(C2CCCCC2)c2ccc(C(=O)NS(C)(=O)=O)cc21 (centres unmarked)	3 to 1000 nM	3 to 1000 nM
COc1ccc2c(c1)C1CC1(C(=O)N1CCCN(Cc3cccnc3)CC1)Cn1c-2c(C2CCCCC2)c2ccc(C(=O)NS(=O)(=O)N3CCC3)cc21 (centres unmarked)	3 to 1000 nM	3 to 1000 nM
COc1ccc2c(c1)C1CC1(C(=O)N1CCCN(C(=O)OC(C)(C)C)CC1)Cn1c-2c(C2CCCCC2)c2ccc(C(=O)NS(=O)(=O)N3CCC3)cc21 (centres unmarked)	3 to 1000 nM	3 to 1000 nM
COc1ccc2c(c1)C1CC1(C(=O)N1CCN(C)CC1c1ccccc1)Cn1c-2c(C2CCCCC2)c2ccc(C(=O)NS(=O)(=O)N3CCC3)cc21 (centres unmarked)	3 to 1000 nM	3 to 1000 nM
C=CCN1CCN(C(=O)C23CC2c2cc(OC)ccc2-c2c(C4CCCCC4)c4ccc(C(=O)NS(=O)(=O)C(C)C)cc4n2C3)CC1 (centres unmarked)	3 to 1000 nM	3 to 1000 nM
COc1ccc2c(c1)C1CC1(C(=O)N1CCN(C)C[C@@H]1c1ccccc1)Cn1c-2c(C2CCCCC2)c2ccc(C(=O)NS(=O)(=O)C(C)C)cc21 (some centres unmarked)	3 to 1000 nM	3 to 1000 nM
COc1ccc2c(c1)C1CC1(C(=O)N1CCN(C)C[C@H]1c1ccccc1)Cn1c-2c(C2CCCCC2)c2ccc(C(=O)NS(=O)(=O)C(C)C)cc21 (some centres unmarked)	3 to 1000 nM	3 to 1000 nM
COc1ccc2c(c1)C1CC1(C(=O)N1CCN(C)CC1c1ccccc1)Cn1c-2c(C2CCCCC2)c2ccc(C(=O)NS(=O)(=O)N(C)C)cc21 (centres unmarked) [drawing 44]	3 to 1000 nM	3 to 1000 nM
COc1ccc2c(c1)C1CC1(C(=O)N1CCN(C)CC1c1ccccc1)Cn1c-2c(C2CCCCC2)c2ccc(C(=O)NS(=O)(=O)C(C)C)cc21 (centres unmarked) [drawing 74]	3 to 1000 nM	3 to 1000 nM
COc1ccc2c(c1)C1C[C@]1(C(=O)N1CCN(C)CC1c1ccccc1)Cn1c-2c(C2CCCCC2)c2ccc(C(=O)NS(=O)(=O)C(C)C)cc21 (some centres unmarked) [drawing 78]	3 to 1000 nM	3 to 1000 nM
